# Data: patent US20140088184A1 (priority 2011, published 2014)
# Where two headings read alike, the source gives them in different places.
# How the values were obtained:
# JFH1-Rluc virus [1] = experiment: microbe, parasite or virus in culture; type: cell-based, hepatitis C virus (isolate JFH1, genotype 2a); conditions: for relative viral infection / inhibition of viral infection: 50 μM during 2 h infection of Huh-7 cells, luciferase 48 h after infection; for relative viral infection: compared with DMSO; for inhibition of viral infection: EGCG from CALBIOCHEM or EXTRASYNTHESE
# [2] = system: HCVpp expressing envelope proteins E1 and E2 of the HCV virus of genotypes 1a, 1b, 2a, 2b, 3, 4, 5, 6; type: cell-based, hepatitis C virus; conditions: for relative infection: vs DMSO
# JFH1-Rluc virus [3] = experiment: Split-up of HCV entry steps (attachment, receptor interaction, endocytosis/fusion), JFH-Luc in Huh-7 cells; conditions: for step of HCV entry inhibited: entry split up into its three constituent steps, general statement of the description
# HCV viral replication = experiment: Viral replication (results not shown); type: cell-based, hepatitis C virus
# [4] = system: VSVpp (virus like particles expressing the envelope protein of VSV); type: cell-based, vesicular stomatitis virus
# yellow fever virus (YFV) = type: cell-based; conditions: Huh-7 cells, EGCG 50 μM vs DMSO
# Sindbis virus (SINV) = type: cell-based; conditions: Huh-7 cells, EGCG 50 μM vs DMSO
# [5] = system: bovine viral diarrhoea virus (BVDV); type: cell-based; conditions: MDBK cells, EGCG 50 μM vs DMSO
# JFH1 virus = experiment: Cell to cell transmission of HCVcc (JFH1) in Huh-7 cells under agarose; type: cell-based, hepatitis C virus; conditions: EGCG 50 μM in 1% agarose medium, 72 h post-infection; control sites average 45
# Protocol: The Huh-7 cells cultured in 24 well plates are infected with HCVcc over a period of 2 hours. The inoculum was eliminated and replaced by DMEM medium supplemented with GLUTAMAX®-1,10% of FCS and 1% low melting point agarose gel (SeaPlaque® Agarose marketed by LONZA®) containing EGCG (50 μM) or an equivalent volume of Dimethyl Sulfoxide (DMSO) as a control. The cells are incubated at 37° C. over a period of 3 days at the end of which the agarose is eliminated and the infection sites are detected using indirect immunofluorescence for HCV E1 protein as previously described.
# A second mode of viral infection is the transmission of the virus from cell to cell. […] The agarose prevents infection of cells by the virus secreted into the medium and thus makes it possible to observe the cell to cell transmission of the virus by virtue of the cells being in contact amongst themselves.
# At seventy-two hours post-infection, the cells were fixed and infection was detected by immunofluorescence after labelling with an anti-E1 antibody. A step of detection is then carried out with a Cy3 coupled secondary antibody. The nuclei are stained with DAPI staining. The number of cells per infection site was quantified (FIG. 5). In the presence of EGCG the infection sites are much smaller. They contain an average of 3-4 infected cells showing that the virus has not propagated after infecting a cell. […]
# HCVcc [6] = experiment: microbe, parasite or virus in culture; type: cell-based
# HCVcc [7] = experiment: Quantitative binding test: HCVcc attachment to Huh-7 cells, HCV RNA by quantitative RT-PCR; type: cell-based, hepatitis C virus; conditions: 1 hour at 4° C., MOI 10, vs DMSO; for virus attachment to the cell surface: 50 μM
# Protocol: HCVcc. For the quantitative “binding” experiments, the HCVcc virus was mass produced and purified by concentration and separation in a gradient of iodixanol. Supernatants of infected cells were precipitated with 8% PEG 6000 at 4° C. overnight and centrifuged for 25 minutes at 10 000 rpm. The pellets were resuspended in 1 mL, of PBS, loaded on a continuous iodixanol gradient (10-40%), and centrifuged at 36 000 rpm for 16 hours at 4° C. Fractions of 500 μL were collected and the titre of each fraction was determined. The most infectious fractions were combined in order to perform the experiments.
# Quantitative “Bindinq” Test. The HCVcc virus was contacted with the Huh-7 cells for 1 hour at 4° C. in the presence of EGCG (50 μM), delphinidin chloride (50 μM) or porcine intestinal heparin (500 ug/mL). After 3 washes with PBS, the total RNAs (viral and cellular) were extracted using the NucleoSpin RNA II kit (Macherey-Nagel, Düren, Germany) and the HCV RNA quantified by quantitative RT-PCR (Castelain et al, J Clin Virol 2004). Heparin was used in parallel as a control.
# In order to determine whether the step of attachment to the cell surface was inhibited by EGCG, quantitative “binding” (or attachment) tests have been carried out. The action of delphinidin chloride was tested in parallel. Heparin, a known inhibitor of HCV attachment to the cell surface, was used as a positive control. The cells were incubated with HCVcc purified to a multiplicity of infection of 10 for 1 hour at 4° C. in the presence of DMSO, 50 M of EGCG, 50 μM of delphinidin chloride or 500 μg/mL of heparin. The cells were washed 3 times with cold PBS and the total RNA extracted. The amount of virus fixed was determined by quantifying the viral genomic RNA by means of quantitative RT-PCR.
# HCV JFH1 = experiment: Successive infections with supernatants of infected cells (passages P0 to P4); conditions: 50 μM EGCG, passages P0 to P4, 48 h each
# [8] = genotypes 1a, 1b, 2a, 2b, 3, 4, 5 and 6, general statement of the description, no concentration
molecule,measurement,setting,value
"Oc1cc(O)c2c(c1)O[C@H](c1ccc(O)c(O)c1)[C@@H](O)C2 [(+)-catechin, reference compound]",relative viral infection,JFH1-Rluc virus [1],identical to that observed for DMSO
"Oc1cc(O)c2c(c1)O[C@H](c1ccc(O)c(O)c1)[C@H](O)C2 [(−)-epicatechin, reference compound]",relative viral infection,JFH1-Rluc virus [1],identical to that observed for DMSO
"O=C(O[C@@H]1Cc2c(O)cc(O)cc2O[C@@H]1c1ccc(O)c(O)c1)c1cc(O)c(O)c(O)c1 [ECG, (2R,3R)-2-(3,4-Dihydroxyphenyl)-3,4-dihydro-1(2H)-benzopyran-3,5,7-triol 3-(3,4,5-trihydroxybenzoate)]",inhibition of viral infection,JFH1-Rluc virus [1],about 40%
same,inhibitory effect across viral genotypes of HCV,[2]; [8],observed in all the viral genotypes of HCV
same,step of HCV entry inhibited,JFH1-Rluc virus [3],only the step of attachment is inhibited
"Oc1cc(O)c2c(c1)O[C@H](c1cc(O)c(O)c(O)c1)[C@H](O)C2 [EGC, (2R,3R)-2-(3,4,5-trihydroxyphenyl) chroman-3,5,7-triol]",inhibition of viral infection,JFH1-Rluc virus [1],~80%
same,inhibitory effect across viral genotypes of HCV,[2]; [8],observed in all the viral genotypes of HCV
same,step of HCV entry inhibited,JFH1-Rluc virus [3],only the step of attachment is inhibited
"O=C(O[C@@H]1Cc2c(O)cc(O)cc2O[C@@H]1c1cc(O)c(O)c(O)c1)c1cc(O)c(O)c(O)c1 [EGCG, (2R,3R)-5,7-dihydroxy-2-(3,4,5-trihydroxyphenyl)-3,4-dihydro-2H-chromen-3-yl 3,4,5-trihydroxybenzoate]",decrease of viral infection (factor),JFH1-Rluc virus [1]; 50 μM EGCG during 2 h infection of Huh-7 cells,greater than 10
same,inhibition of viral infection,JFH1-Rluc virus [1],greater than 95%
same,IC50,"JFH1-Rluc virus [1]; Hepatitis C virus, Huh-7, read-out: IC50 (viral infection)",5 µM
same,effect on viral entry,JFH1-Rluc virus [1]; non infected cells treated with the molecule before or after infection,no effect
same,inhibitory effect with pretreated virus,JFH1-Rluc virus [1]; virus incubated 45 minutes with 50 μM EGCG before infection,increase in the inhibitory effect
same,viral replication,HCV viral replication,not affected
same,effect on the infection by HCVpp of all genotypes tested,[2]; EGCG 50 μM,inhibitory effect
same,relative infection,"[2]; HCVpp genotype 1b, EGCG 50 μM",substantially nil
same,relative infection,"[2]; HCVpp genotype 2a, EGCG 50 μM",substantially nil
same,relative infection,"[2]; HCVpp genotype 2b, EGCG 50 μM",substantially nil
same,relative infection,"[2]; HCVpp genotype 4, EGCG 50 μM",substantially nil
same,inhibitory effect across viral genotypes of HCV,[2]; [8],observed in all the viral genotypes of HCV
same,effect on infection by the VSVpp,[4],no effect
same,relative infection rate,[4],85%
same,effect on cell infection,yellow fever virus (YFV),does not have an inhibitory effect
same,effect on cell infection,Sindbis virus (SINV),does not have an inhibitory effect
same,effect on cell infection,[5],does not have an inhibitory effect
same,number of cells per infection site (average),JFH1 virus,3-4 infected cells
same,IC50,"HCVcc [6]; Hepatitis C virus, Huh-7; read-out: IC50 (concentration inhibiting 50% infection)",~11 µM
same,virus attachment to the cell surface,HCVcc [7],strong decrease
same,percentage of cells infected in each passage of supernatant,HCV JFH1,elimination of HCV from the culture supernatant from the third passage onwards and the complete elimination in the fourth passage
same,infection (luciferase activity),JFH1-Rluc virus [3]; 50 μM EGCG during all three steps of viral entry (Sample 5),significant reduction of infection
same,infection (luciferase activity),"JFH1-Rluc virus [3]; 50 μM EGCG during the step of attachment, 1 h at 4° C. (Sample 2)",significant reduction of infection
same,infection (luciferase activity),"JFH1-Rluc virus [3]; 50 μM EGCG during the step of endocytosis or fusion, 1 h at 37° C. (Sample 4)",does not seem to have any effect
same,infection (luciferase activity),JFH1-Rluc virus [3]; 50 μM EGCG during the step of interaction with host cell receptors (Sample 3),does not seem to have any effect
same,step of HCV entry inhibited,JFH1-Rluc virus [3],only the step of attachment is inhibited
"Oc1cc(O)c2cc(O)c(-c3cc(O)c(O)c(O)c3)[o+]c2c1 [delphinidin chloride, 3,3′,4′,5,5′,7-Hexahydroxyflavylium chloride]",inhibitory effect across viral genotypes of HCV,[2],observed in all the viral genotypes of HCV
same,IC50,"HCVcc [6]; Hepatitis C virus, Huh-7, read-out: IC50 (concentration inhibiting 50% infection)",~3.5 µM
same,virus attachment to the cell surface,HCVcc [7],strong decrease
same,step of HCV entry inhibited,JFH1-Rluc virus [3],only the step of attachment is inhibited
heparin [reference compound],attachment of the virus to the surface of cells,"HCVcc [7]; 500 μg/mL, positive control",greatly reduced
